Earlier results on one compound are cited in patent publication US20170303537A1, “COMPOSITIONS OF A QUATERNARY AMMONIUM COMPOUND WITH A MONOCARBOXYLIC FATTY ACID” (OMS INVESTMENTS, INC., priority 2016, published 2017).

For `CCCCCCCCC(=O)O` [pelargonic acid], the pKa result is on record as “about 5”.
